Reference: patent publication US4927837A, “Derivatives of 3-piperidine carbaldehyde oxime and their use as medicaments” (Roussel Uclaf, priority 1987, dated 1990)
Where two headings read alike, the source gives them in different places.

What was measured:
in vivo = conditions: mouse, male mice, oral route, mortality noted for 7 days
Description: The test is carried out on male mice (CD1 Charles Rivers) of 22 to 24 g, which have gone without food for 16 hours.

[1] = system: isolated ileum of guinea pigs; assay: Test on the isolated ileum of guinea pigs (agonistic activity); conditions: Cavia porcellus; isolated guinea pig ileum, contraction, Tyrode's solution, 37° C.; read-out: pD2 (negative logarithm of the dose which produces 50% of the maximum effect) (converted)
Description: Fragments of the ileum of guinea pigs killed by decapitation are removed. The isolated ileum is placed in 10 cm^3 of Tyrode's solution at 37° C. and aerated by a mixture of oxygen (95%) and carbon dioxide gas (5%). The contractions due to the products are recorded with a detector linked to a polygraph. The products under test are added at concentrations between 1.10^-4 M and 1.10^-8 M/1.
The products showing a contracting effect are tested vis a vis atropine and hexamethonium in order to establish whether the activity is of "muscarine" or "nicotine" type.
The possible antagonistic activity of the products is tested vis a vis acetylcholine.
The agonistic activity is expressed in pD2 (negative logarithm of the dose which produces 50% of the maximum effect.)

[2] = Diarrheic activity in mice, oral route; conditions: mouse, in vivo, male mice, read-out: DE50 (dose which causes diarrhea in 50% of the animals)
Description: The test is carried out on male mice (CD1 Charles Rivers) weighing 25 to 30 g, which have gone without food for 6 hours. The product, dissolved at 5% in methocel, is administered by oral route, using a probang.
The control animals receive only the excipient.
After treatment, the animals are put separately into cages, the bottoms of which are covered with blotting paper, and are put under observation for 30, 60, 120 and 180 minutes.
The absorbent sheets of paper are changed after each observation.
The consistency of the faeces is evaluated according to the Randall and Baruth method (Arch. Int. Pharmacodyn. 220, 94, 1976), according to the scale of the following values:
1: slightly moist faeces with or without halo of humidity,
2: slightly moist faeces with presence of well-defined circle of humidity,
3: moist faeces with presence of a large circle of humidity,
4: faeces without consistency with presence of a very large circle of humidity.
For each product, the dose which causes diarrhea in 50% of the animals is noted according to the method of Miller and Tainter (Proc. Soc. Exp. Biol. Med., 57, 261, 1944).

[3] = Hypothermic activity in mice; assay type: in vivo; conditions: Mus musculus, male mice, read-out: Effective dose (-1° C.)
Description: (§1) The test is carried out on male mice (CD1 Charles Rivers) weighing 25 to 30 g, which have gone without food for 6 hours.
The body temperature is noted using a thermocouple placed about 1.5 cm inside the rectum, and connected to an electric temperature recorder.
The products are administered by oral or subcutaneous route and the temperatures are noted at instant 0 and at 30 minutes, 1 hour, 2 hours and 21/2 hours after treatment.
The degree of hypothermia is evaluated as the difference between the treated animals and the control animals, and the dose necessary for reducing the body temperature by 1° C. is determined.

[4] = Variation in body temperature (duration of action); assay type: in vivo, mice
Description: as §1
The body temperature is noted using a thermocouple placed about 1.5 cm inside the rectum, and connected to an electric temperature recorder. […]
The duration of action of the products is determined using doses capable of reducing the temperature by 1° to 1.5° C.

[5] = system: patients who have a memory deficiency; conditions: intravenous route; cited from earlier work
[6] = system: central cholinergic system; conditions: cited from earlier work
[7] = 2 mg/kg, sc, 30 min, **p < 0.01
[8] = 2 mg/kg, sc, 60 min, **p < 0.01

**Q.** For `CON=CC1CCCN(OC(=O)c2ccccc2)C1` (stereo not drawn) [Example 7, 1-benzoyloxy-3-piperidine carbaldehyde (O-methyloxime)], which LD50 at 168 h (in vivo) is on record?
**A.** > 500 mg/kg

**Q.** What about the EC50 [1] of the same compound?
**A.** > 100 µM

**Q.** And the ED50 [2]?
**A.** 10 mg/kg

**Q.** What about the ED (-1 C) ([3]; O. R. (oral route)) of the same compound?
**A.** 4 mg/kg

**Q.** What about the ED (-1 C) ([3]; SC. R. (subcutaneous route)) of the same compound?
**A.** 4 mg/kg

**Q.** What about the “Variation in body temperature” value ([4]; 5 mg/kg, os, 0 min) of the same compound?
**A.** +0.1 °C

**Q.** And the “Variation in body temperature” value ([4]; 5 mg/kg, os, 30 min, **p < 0.01)?
**A.** -1.2 °C

**Q.** And the “Variation in body temperature” value ([4]; 5 mg/kg, os, 60 min, **p < 0.01)?
**A.** -1.0 °C

**Q.** What about the “Variation in body temperature” value ([4]; 5 mg/kg, os, 120 min) of the same compound?
**A.** +0.1 °C

**Q.** What about the “Variation in body temperature” value ([4]; 5 mg/kg, os, 180 min) of the same compound?
**A.** +0.1 °C

**Q.** What about the “Variation in body temperature” value ([4]; 5 mg/kg, sc, 0 min) of the same compound?
**A.** +0.1 °C

**Q.** And the “Variation in body temperature” value ([4]; 5 mg/kg, sc, 30 min, **p < 0.01)?
**A.** -1.2 °C

**Q.** And the “Variation in body temperature” value ([4]; 5 mg/kg, sc, 60 min, **p < 0.01)?
**A.** -1.1 °C

**Q.** What about the “Variation in body temperature” value ([4]; 5 mg/kg, sc, 180 min) of the same compound?
**A.** +0.1 °C

**Q.** With `C#CCON=CC1CCCNC1` (stereo not drawn) [Example 6, 3-piperidine carbaldehyde O-(2-propynyl) oxime] as the compound, how does the LD50 at 168 h (in vivo) read?
**A.** 100 mg/kg

**Q.** And the EC50 [1]?
**A.** 4.47 µM

**Q.** And the ED50 [2]?
**A.** 12 mg/kg

**Q.** And the ED (-1 C) ([3]; O. R. (oral route))?
**A.** 7 mg/kg

**Q.** And the ED (-1 C) ([3]; SC. R. (subcutaneous route))?
**A.** 7 mg/kg

**Q.** And the “Variation in body temperature” value ([4]; 12.5 mg/kg, os, 0 min)?
**A.** +0.1 °C

**Q.** What about the “Variation in body temperature” value ([4]; 12.5 mg/kg, os, 30 min, **p < 0.01) of the same compound?
**A.** -1.2 °C

**Q.** And the “Variation in body temperature” value ([4]; 12.5 mg/kg, os, 60 min, **p < 0.01)?
**A.** -1.4 °C

**Q.** And the “Variation in body temperature” value ([4]; 12.5 mg/kg, os, 120 min)?
**A.** -0.1 °C

**Q.** What about the “Variation in body temperature” value ([4]; 12.5 mg/kg, os, 180 min) of the same compound?
**A.** +0.1 °C

**Q.** What about the “Variation in body temperature” value ([4]; 12.5 mg/kg, sc, 0 min) of the same compound?
**A.** -0.1 °C

**Q.** What about the “Variation in body temperature” value ([4]; 12.5 mg/kg, sc, 30 min, **p < 0.01) of the same compound?
**A.** -1.6 °C

**Q.** And the “Variation in body temperature” value ([4]; 12.5 mg/kg, sc, 60 min, **p < 0.01)?
**A.** -1.5 °C

**Q.** What about the “Variation in body temperature” value ([4]; 12.5 mg/kg, sc, 120 min) of the same compound?
**A.** -0.2 °C

**Q.** And the “Variation in body temperature” value ([4]; 12.5 mg/kg, sc, 180 min)?
**A.** +0.1 °C

**Q.** For `CON=CC1CCCN(O)C1` (stereo not drawn) [Example 8, 1-hydroxy-3-piperidine carbaldehyde (O-methyloxime)], which LD50 at 168 h (in vivo) is on record?
**A.** 200 mg/kg

**Q.** And the EC50 [1]?
**A.** 11.2 µM

**Q.** And the ED50 [2]?
**A.** 4 mg/kg

**Q.** And the ED (-1 C) ([3]; O. R. (oral route))?
**A.** 2 mg/kg

**Q.** What about the ED (-1 C) ([3]; SC. R. (subcutaneous route)) of the same compound?
**A.** 1.6 mg/kg

**Q.** What about the “Variation in body temperature” value ([4]; 2 mg/kg, sc, 0 min) of the same compound?
**A.** +0.1 °C

**Q.** And the “Variation in body temperature” value [4, 7]?
**A.** -1.2 °C

**Q.** And the “Variation in body temperature” value [4, 8]?
**A.** -1.0 °C

**Q.** And the “Variation in body temperature” value ([4]; 2.5 mg/kg, os, 0 min)?
**A.** +0.1 °C

**Q.** And the “Variation in body temperature” value ([4]; 2.5 mg/kg, os, 30 min, **p < 0.01)?
**A.** -1.2 °C

**Q.** What about the “Variation in body temperature” value ([4]; 2.5 mg/kg, os, 60 min, **p < 0.01) of the same compound?
**A.** -1.0 °C

**Q.** What about the “Variation in body temperature” value ([4]; 2.5 mg/kg, os, 180 min) of the same compound?
**A.** +0.2 °C

**Q.** Which results are given for `COC(=O)C1=CCCN(C)C1` [Arecoline, reference compound]?
**A.** EC50 [1]: 0.126 µM; ED50 [2]: 35 mg/kg; ED (-1 C) ([3]; O. R. (oral route)): 194 mg/kg; ED (-1 C) ([3]; SC. R. (subcutaneous route)): 3 mg/kg; effect on patients who have a memory deficiency [5]: positive effect; period of action ([6]; in vivo): short-lasting period of action; activity by oral route ([6]; oral route): very weak activity by oral route

**Q.** With `CON=CC1CCCNC1` (stereo not drawn) [Example 2, 3-piperidine carbaldehyde O-methyloxime] as the compound, how does the LD50 at 168 h (in vivo) read?
**A.** 125 mg/kg

**Q.** And the EC50 [1]?
**A.** 0.891 µM

**Q.** And the ED50 [2]?
**A.** 3 mg/kg

**Q.** And the ED (-1 C) ([3]; O. R. (oral route))?
**A.** 1.2 mg/kg

**Q.** And the ED (-1 C) ([3]; SC. R. (subcutaneous route))?
**A.** 1.2 mg/kg

**Q.** And the “Variation in body temperature” value ([4]; 2 mg/kg, os, 0 min)?
**A.** +0.1 °C

**Q.** And the “Variation in body temperature” value ([4]; 2 mg/kg, os, 30 min, **p < 0.01)?
**A.** -1.7 °C

**Q.** What about the “Variation in body temperature” value ([4]; 2 mg/kg, os, 60 min, **p < 0.01) of the same compound?
**A.** -1.4 °C

**Q.** And the “Variation in body temperature” value ([4]; 2 mg/kg, os, 120 min)?
**A.** +0.1 °C

**Q.** And the “Variation in body temperature” value ([4]; 2 mg/kg, os, 180 min)?
**A.** +0.1 °C

**Q.** And the “Variation in body temperature” value [4, 7]?
**A.** -1.7 °C

**Q.** What about the “Variation in body temperature” value [4, 8] of the same compound?
**A.** -1.5 °C

**Q.** And the “Variation in body temperature” value ([4]; 2 mg/kg, sc, 180 min)?
**A.** +0.1 °C

**Q.** What does the source list for `COC(=O)C1=CCCN(C)C1` [Arecoline, HBr, reference compound]?
**A.** Variation in body temperature ([4]; 3.5 mg/kg, sc, 0 min): -0.1 °C; Variation in body temperature ([4]; 3.5 mg/kg, sc, 30 min, **p < 0.01): -1.5 °C; Variation in body temperature ([4]; 3.5 mg/kg, sc, 60 min): -0.1 °C; Variation in body temperature ([4]; 3.5 mg/kg, sc, 120 min): +0.2 °C; Variation in body temperature ([4]; 3.5 mg/kg, sc, 180 min): +0.2 °C
